Experimental data published in PubChem BioAssay (NCI).
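How tested: cells in 96-well plates exposed to compound for 48 hours at five concentrations. Here, GI50 denotes the concentration required for 50% inhibition of growth. TGI is the concentration that stops growth completely.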

Tests used:
Test in all cases: NCI tumour cell line growth inhibition, 48 h
[1] = system: ACHN renal
[2] = system: HCT-116 colon
[3] = system: HT29 colon
[4] = system: IGROV1 ovarian
[5] = system: K-562 leukemia
[6] = system: KM12 colon
[7] = system: M14 melanoma
[8] = system: OVCAR-8 ovarian
[9] = system: RPMI-8226 leukemia
[10] = system: SK-OV-3 ovarian

Row | SMILES | GI50 [1] | TGI [1] | GI50 [2] | TGI [2] | GI50 [3] | TGI [3] | GI50 [4] | TGI [4] | GI50 [5] | TGI [5] | GI50 [6] | TGI [6] | GI50 [7] | TGI [7] | GI50 [8] | TGI [8] | GI50 [9] | TGI [9] | GI50 [10] | TGI [10]
1 | O=C(/C=C/N1CCN(c2cccc(C(F)(F)F)c2)CC1)c1ccc(Cl)cc1Cl | 23.4 µM | 46.9 µM | 23.6 µM | 50.2 µM | 38.6 µM | > 100 µM | 30 µM | 58.2 µM | 35.8 µM | > 100 µM | 28.1 µM | 75.9 µM | 17.2 µM | 36.1 µM | 28.5 µM | 83.4 µM | 25.9 µM | 70.8 µM | 36.2 µM | 98.2 µM
2 | COC(=O)c1cc(Nc2ccc(O)c3c2C(=O)c2c([N+](=O)[O-])ccc(O)c2C3=O)cc(C(=O)OC)c1 | 21.3 µM | > 100 µM | 4.17 µM | > 100 µM | 8.21 µM | > 100 µM | 26.9 µM | > 100 µM | 27.2 µM | > 100 µM | 34.5 µM | > 100 µM | 3.15 µM | > 100 µM | 6.57 µM | > 100 µM | 3.84 µM | > 100 µM | > 100 µM | > 100 µM
3 | CC(C)(C)n1cc(-c2ccnc(NCCNS(=O)(=O)c3ccc(Br)cc3)c2)c(-c2cccc(O)c2)n1 | 2.1 µM | 4.39 µM | 1.44 µM | 2.86 µM | 1.52 µM | 3.75 µM | 1.95 µM | 4.39 µM | 0.573 µM | 2.85 µM | 1.99 µM | 4.32 µM | 1.77 µM | 3.4 µM | 2.27 µM | 7.71 µM | 1.6 µM | 5 µM | 2.29 µM | 6.1 µM
4 | CCOC(=O)c1cnc2[nH]c(=O)c3ccccc3n2c1=O |  | > 100 µM |  | > 100 µM |  | > 100 µM |  | > 100 µM |  | > 100 µM |  | > 100 µM |  | > 100 µM |  | > 100 µM |  | > 100 µM |  | > 100 µM
5 | CC(CC(=O)O)(CC(=O)O)C(=O)O |  | > 100 µM |  | > 100 µM |  | > 100 µM |  | > 100 µM |  | > 100 µM |  | > 100 µM |  | > 100 µM |  | > 100 µM |  | > 100 µM |  | > 100 µM
6 | O=C(CCCCCCCCC(=O)OCC1OC(n2cnc3c(=O)[nH]cnc32)C(O)C1O)OCC1OC(n2cnc3c(=O)[nH]cnc32)C(O)C1O (centres undefined) |  | > 100 µM |  | > 100 µM |  | > 100 µM |  | > 100 µM |  | > 100 µM |  | > 100 µM |  | > 100 µM |  | > 100 µM |  | > 100 µM |  | > 100 µM
7 | CN1C(=O)c2cc(Cl)nc3c(NC(=O)c4cccc(Cl)c4)c(Cl)c(NC(=O)c4cccc(Cl)c4)c1c23 | 1.72 µM | 3.09 µM | 1.31 µM | 2.69 µM | 1.97 µM | 4.05 µM | 1.42 µM | 3.15 µM | 1.01 µM | 2.57 µM | 3.44 µM | 15.5 µM | 1.47 µM | 3.03 µM | 2.48 µM | 5.7 µM | 3.63 µM | 32.6 µM | 4.98 µM | 17.4 µM
8 | CCOP(=O)(OCC)/C(C#N)=C\c1cccc2ccccc12 |  | > 100 µM |  | > 100 µM |  | > 100 µM |  | > 100 µM |  | > 100 µM |  | > 100 µM |  | > 100 µM |  | > 100 µM |  | > 66.5 µM |  | > 100 µM
9 | COc1ccccc1Cn1cc2c(c1)-c1oncc1CC2 | 2.12 µM | > 100 µM | 0.39 µM | 13.6 µM | 0.351 µM | 11.7 µM | 1.84 µM | > 78.7 µM | 0.391 µM | > 33.5 µM | 0.435 µM | 6.94 µM | 0.549 µM | > 41.9 µM | 1.92 µM | > 50.8 µM | 0.454 µM |  | 0.46 µM | 8.44 µM
10 | COC(=O)/C(C#N)=C1\N=NNN1CCCN1CCOCC1 |  | > 100 µM |  | > 100 µM |  | > 100 µM |  | > 100 µM |  | > 100 µM |  | > 100 µM |  | > 100 µM |  | > 100 µM |  | > 100 µM |  | > 100 µM
11 | Oc1cc2cc(-c3ccccc3)[nH]c2c2ccccc12 |  | > 88.3 µM |  | 37.1 µM |  | > 100 µM |  | > 100 µM |  | > 88.8 µM |  | > 100 µM |  | 61 µM |  | > 100 µM |  | 67.6 µM |  | > 100 µM
12 | Cc1ccc([P+](Cc2ccc([N+](=O)[O-])cc2)(c2ccc(C)cc2)c2ccc(C)cc2)cc1 | 15.8 µM | 38.4 µM | 1.49 µM | 12 µM | 2.51 µM | 12.8 µM | 2.53 µM | 14.8 µM | 1.28 µM | 12.3 µM | 2.44 µM | 10.2 µM | 2.96 µM | 12.3 µM | 2.96 µM | 13 µM | 1.02 µM | 4.86 µM | 12 µM | 25.2 µM
13 | Brc1ccc2c(c1)C1(c3cc(Br)ccc3-2)c2cc(Br)ccc2-c2ccc(Br)cc21 |  | > 100 µM |  | > 100 µM |  | > 100 µM |  | > 100 µM |  | > 100 µM |  | > 100 µM |  | > 100 µM |  | > 100 µM |  | > 100 µM |  | > 100 µM
14 | CC(CS(=O)(=O)Cc1ccccc1)C(N)=O (centres undefined) |  | > 100 µM |  | > 100 µM |  | > 100 µM |  | > 100 µM |  | > 100 µM |  | > 100 µM |  | > 100 µM |  | > 100 µM |  | > 100 µM |  | > 100 µM
15 | COc1cccc(-c2nn(-c3ccccc3)cc2-c2ccnc(NCCNC(=O)Nc3ccc(Cl)c(Cl)c3)c2)c1 | 2.79 µM | 10.2 µM | 2.17 µM | 5.33 µM | 1.91 µM | 5.39 µM | 3.61 µM | 15.6 µM | 3.09 µM | 11.1 µM | 2.27 µM | 5.79 µM | 1.67 µM | 4.05 µM | 2.98 µM | 11.2 µM | 2.6 µM | 7.52 µM | 4.06 µM | 14.4 µM
